Reference: patent US6861070B1, “Medicinal compositions for treating evacuatory insufficiency” (Yamanouchi Pharmaceutical Co., Ltd., priority 1998, dated 2005)
Counter-ions that a name gives are not always drawn.

System: patients diagnosed to be voiding dysfunction associated with neurogenic bladder
Assay: Clinical test to patients of voiding dysfunction associated with neurogenic bladder
Type: in vivo
Procedure: Test Example 1. Clinical Test to Patients of Voiding Dysfunction Associated with Neurogenic Bladder. Clinical test was carried out under the following conditions to the causes of voiding dysfunction associated with neurogenic bladder. Patients: Sixty patients diagnosed to be voiding dysfunction associated with neurogenic bladder (excluding the cases where the cause was peripheral diseases). Used drug and method of administration: Capsule preparation containing 0.2 mg of tamsulosin hydrochloride or placebo capsule was used and two capsules were orally administered after breakfast (once daily) for four weeks. […] Approximate safety was evaluated as no problem, little problems, some problems and problems according to the presence/absence and degree of side effect, change of blood pressure and pulse rate, and abnormal change in clinical date. Impression by the patient was judged to be much improvement, improvement, some improvement, no change, some worsening, worsening and much worsening. Finally, degree of improvement as a whole, approximate safety and impression by patient were taken into consideration and the final judgement for the Usefulness wan judged to be any of the […]—very useful, useful, somewhat useful and not preferable.

[1] = compared with placebo group, two 0.2 mg capsules orally once daily, four weeks
[2] = share of patients (12/20), two 0.2 mg capsules orally once daily, four weeks
[3] = two 0.2 mg capsules orally once daily after breakfast, four weeks, n = 16
[4] = two 0.2 mg capsules orally once daily after breakfast, four weeks, n = 23

## CCOc1ccccc1OCCN[C@H](C)Cc1ccc(OC)c(S(N)(=O)=O)c1 [Tamsulosin Hydrochloride, (R)(−)-5-{2-{[2-(o-ethoxyphenoxy)ethyl}amino]propyl}-2-methoxybenzene-sulfonamide]
[1]
  Approximate safety (side effect, blood pressure, pulse rate, clinical data): no significant difference
  Impression by patient: no significant difference
Impression by the patients further taken into consideration
  Usefulness as a therapeutic agent (final judgement, in words): useful as a therapeutic agent
Patients suffering from voiding dysfunction associated with neurogenic bladder
  Improvement of subjective symptom and objective observation and improvement as a whole (in words): significant improvement
Share of patients (10/23), two 0.2 mg capsules orally once daily, four weeks
  Degree of Improvement in Subjective Symptoms, ≧Medium Improvement: 43.5%
[2]
  Degree of Improvement as a Whole, ≧Medium Improvement: 60.0%
  Degree of Improvement in Objective Observation, ≧Medium Improvement: 80.0%
Share of patients (12/23), two 0.2 mg capsules orally once daily, four weeks
  Usefulness, ≧Useful: 52.2%
[3]
  Average Urinary Flow (Changing Amt): 1.2 ± 1.66 mL/s
  Maximum Urinary Flow (Changing Amt): 2.5 ± 3.01 mL/s
  Residual Urine Rate (Changing Amt): −13 ± 20.0%
[4]
  Residual Urine Amount (Changing Amt): -18 ± 80.1 mL
  Total Score (Changing Rate) of subjective symptoms (1)-(8): −31 ± 34.2%
